These results are taken from PubChem BioAssay (NCI).

Assay in all cases: NCI anticancer screen, dose series, 48 h
Assay [1] relates to 786-0 renal.
In assay [2] the test system is CCRF-CEM leukemia.
Assay [3] deals with DU-145 prostate.
Assay [4] concerns HS 578T breast.
For assay [5], the system named is MCF7 breast.
In assay [6] the test system is MDA-MB-231 breast.
The test system of assay [7] is PC-3 prostate.
The subject of assay [8] is SK-MEL-5 melanoma.
The test system of assay [9] is SK-OV-3 ovarian.
In assay [10] the test system is SNB-19 CNS.

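Results reflect a 48-hour exposure of cells in 96-well plates to compound at five concentrations. Here, GI50 denotes the concentration required for 50% inhibition of growth. TGI marks complete inhibition of growth.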 A value given as a limit tells only on which side of the number the result lay.

On to `Nc1cc2c(cc1Br)[nH]c(=O)c1ccccc12`, for which the GI50 was 6.16 µM in assay [1]; 6.82 µM in assay [2]; 2.14 µM in assay [3]; 3.5 µM in assay [4]; 1.83 µM in assay [5]; 3.37 µM in assay [6]. For the same molecule, the GI50 in assay [7] was 4.14 µM; in assay [8], 1.46 µM; in [9], 10.1 µM; in assay [10], 5.25 µM. Moreover, the TGI in [1] is more than 100 µM; in assay [2] it was 59.5 µM; in assay [3], 4.76 µM; in [4] it was 28.9 µM; in assay [5] it was 11.4 µM; in assay [6], 54.9 µM. The TGI in assay [7] is more than 100 µM; in assay [8] it was 2.79 µM; in [9], 54.1 µM; in assay [10], 20.2 µM.

`ClC(Cl)=C1C(=C(Cl)Cl)C(Cl)(Cl)C1(Cl)Cl`: the TGI in assay [1] turned out to be 2.81 µM; in assay [2], 1.5 µM; in assay [3] it was 23.4 µM; in assay [4], 10.4 µM; in assay [5] it was 19.2 µM; in assay [6] it was 4.81 µM. The TGI in assay [7] came out at 5.08 µM; in [8] it was 9.98 µM; in [9], 28.8 µM; in [10], 29 µM. In addition, the GI50 in [2] was 0.334 µM.

With `O=C(Nc1cc(Cl)ccc1O)c1ccc(Nc2ccnc(C(F)(F)F)c2)cc1`, the GI50 was 3.61 µM in [1]; 0.807 µM in [2]; 3.25 µM in assay [3]; 3.75 µM in assay [4]; 2.68 µM in assay [5]; 2.11 µM in assay [6]. Moreover, the GI50 in assay [7] was 2.72 µM; in assay [8], 2.19 µM; in [9], 2.32 µM; in assay [10], 2.15 µM. Further, the TGI in assay [1] was more than 100 µM; in [2] it was 5.7 µM; in [3], more than 100 µM; in assay [4], more than 100 µM; in assay [5], more than 100 µM; in assay [6] it was 6.35 µM. The TGI in assay [7] is 9.02 µM; in assay [8], 4.95 µM; in [9] it was 7.11 µM; in assay [10] it was 7.78 µM.

Regarding `COc1ccc(/C(C)=C(\c2ccc(OCCN3CCCCCC3)cc2)c2ccc(OC(=O)C3CCCCC3)cc2)cc1`, the GI50 in [1] was 1.11 µM; in [2], 0.75 µM; in [3] it was 1.91 µM; in assay [4] it was 0.959 µM; in [5], 0.015 µM; in assay [6], 1.05 µM. The GI50 in assay [7] was 0.541 µM; in [8], 1.08 µM; in assay [9] it was 1.7 µM; in assay [10], 2.45 µM. The TGI in [1] turned out to be 3.06 µM; in assay [2] it was 9.39 µM; in [3], 4.54 µM; in [4] it was 3.74 µM; in assay [5], 2.88 µM; in assay [6], 3 µM. In addition, the TGI in assay [7] was determined as 2.38 µM; in [8], 3 µM; in [9], 3.96 µM; in [10], 10.5 µM.

In the case of `O=C(/C(=C\c1c(-c2ccccc2)[nH]c2ccccc12)S(=O)(=O)c1ccccc1)c1ccccc1`, the GI50 in assay [1] was more than 100 µM; in [2] it was more than 100 µM; in [3], more than 100 µM; in assay [4] it was 39.5 µM; in [5] it was 5.63 µM; in assay [6], more than 100 µM. Moreover, the GI50 in assay [7] was 4.96 µM; in assay [8], 9.01 µM; in assay [9], 7.63 µM; in assay [10], more than 100 µM. For the same molecule, the TGI in assay [1], in assay [2], in assay [3], in assay [4], in assay [5] and in assay [6] was more than 100 µM in each case. The TGI in assay [7], in assay [8], in assay [9] and in assay [10] was more than 100 µM in each case.
